Test results taken from patent US8741905B2, “Compounds and methods for treating autoimmune diseases” (The Broad Institute, Inc., priority 2010, dated 2014).

Legend:
dissociated human islets = experiment: Cytokine-induced caspase-3/7 activity in dissociated human islets; format: cell-based; conditions: six-day cytokine treatment, co-incubation
From the text: Without being bound by any theory the following postulated to relate the activity of the compounds of Formula I in autoimmune diseases. Human beta-cell apoptosis involves a complex set of signaling cascades initiated by IL-1β, IFN-γ, and TNF-α. IL-1β and TNF-α induce NF-κB expression, while downstream activation of gene expression is thought to occur through nitric oxide (NO) signaling, which both increases the endoplasmic reticulum stress-response pathway and decreases beta-cell function; this pathway works together with IFN-γ-induced STAT-1 signaling to effect beta-cell death. These effects of cytokines are beta cell-specific, and small-molecule suppressors should have little to no effect on other cell types in the pancreas. Small molecules that increase beta-cell survival in the presence of cytokines could be of potential clinical benefit to early-stage type 1 diabetic patients. A number of studies have described small molecules with protective effects in the presence of cytokines; most of these were discovered because of their nonspecific antioxidant or anti-inflammatory effects. […] Because of the use of dissociated islets and a whole-well readout of caspase activity, it cannot be certain that only beta cells are undergoing apoptosis; however, based on previous results in the literature, beta cells may constitute the majority of the apoptotic effect.

INS-1E cells = experiment: Caspase-3 activity assay (Caspase-Glo 3/7) in cytokine-treated INS-1E cells; format: cell-based, rat; conditions: cytokines
Experimental: INS-1E cells were seeded at 5,000 cells per well in white optical 384-well plates and treated as described for highthroughput screening. After treatment with cytokines and compounds for 48 h, medium was removed and 20 μL Caspase-Glo 3/7 reagent was added. Luminescence was measured after 2 h of incubation using an EnVision plate reader.

Usp9x [1] = target: T1, Usp9x (Homo sapiens, UniProt Q93008); experiment: Usp9x thermal shift assay; format: binding; conditions: FIG. 14, purified Usp9x, compared with WP1130
T1 construct: made in house
T1 sequence (Q93008 whole entry): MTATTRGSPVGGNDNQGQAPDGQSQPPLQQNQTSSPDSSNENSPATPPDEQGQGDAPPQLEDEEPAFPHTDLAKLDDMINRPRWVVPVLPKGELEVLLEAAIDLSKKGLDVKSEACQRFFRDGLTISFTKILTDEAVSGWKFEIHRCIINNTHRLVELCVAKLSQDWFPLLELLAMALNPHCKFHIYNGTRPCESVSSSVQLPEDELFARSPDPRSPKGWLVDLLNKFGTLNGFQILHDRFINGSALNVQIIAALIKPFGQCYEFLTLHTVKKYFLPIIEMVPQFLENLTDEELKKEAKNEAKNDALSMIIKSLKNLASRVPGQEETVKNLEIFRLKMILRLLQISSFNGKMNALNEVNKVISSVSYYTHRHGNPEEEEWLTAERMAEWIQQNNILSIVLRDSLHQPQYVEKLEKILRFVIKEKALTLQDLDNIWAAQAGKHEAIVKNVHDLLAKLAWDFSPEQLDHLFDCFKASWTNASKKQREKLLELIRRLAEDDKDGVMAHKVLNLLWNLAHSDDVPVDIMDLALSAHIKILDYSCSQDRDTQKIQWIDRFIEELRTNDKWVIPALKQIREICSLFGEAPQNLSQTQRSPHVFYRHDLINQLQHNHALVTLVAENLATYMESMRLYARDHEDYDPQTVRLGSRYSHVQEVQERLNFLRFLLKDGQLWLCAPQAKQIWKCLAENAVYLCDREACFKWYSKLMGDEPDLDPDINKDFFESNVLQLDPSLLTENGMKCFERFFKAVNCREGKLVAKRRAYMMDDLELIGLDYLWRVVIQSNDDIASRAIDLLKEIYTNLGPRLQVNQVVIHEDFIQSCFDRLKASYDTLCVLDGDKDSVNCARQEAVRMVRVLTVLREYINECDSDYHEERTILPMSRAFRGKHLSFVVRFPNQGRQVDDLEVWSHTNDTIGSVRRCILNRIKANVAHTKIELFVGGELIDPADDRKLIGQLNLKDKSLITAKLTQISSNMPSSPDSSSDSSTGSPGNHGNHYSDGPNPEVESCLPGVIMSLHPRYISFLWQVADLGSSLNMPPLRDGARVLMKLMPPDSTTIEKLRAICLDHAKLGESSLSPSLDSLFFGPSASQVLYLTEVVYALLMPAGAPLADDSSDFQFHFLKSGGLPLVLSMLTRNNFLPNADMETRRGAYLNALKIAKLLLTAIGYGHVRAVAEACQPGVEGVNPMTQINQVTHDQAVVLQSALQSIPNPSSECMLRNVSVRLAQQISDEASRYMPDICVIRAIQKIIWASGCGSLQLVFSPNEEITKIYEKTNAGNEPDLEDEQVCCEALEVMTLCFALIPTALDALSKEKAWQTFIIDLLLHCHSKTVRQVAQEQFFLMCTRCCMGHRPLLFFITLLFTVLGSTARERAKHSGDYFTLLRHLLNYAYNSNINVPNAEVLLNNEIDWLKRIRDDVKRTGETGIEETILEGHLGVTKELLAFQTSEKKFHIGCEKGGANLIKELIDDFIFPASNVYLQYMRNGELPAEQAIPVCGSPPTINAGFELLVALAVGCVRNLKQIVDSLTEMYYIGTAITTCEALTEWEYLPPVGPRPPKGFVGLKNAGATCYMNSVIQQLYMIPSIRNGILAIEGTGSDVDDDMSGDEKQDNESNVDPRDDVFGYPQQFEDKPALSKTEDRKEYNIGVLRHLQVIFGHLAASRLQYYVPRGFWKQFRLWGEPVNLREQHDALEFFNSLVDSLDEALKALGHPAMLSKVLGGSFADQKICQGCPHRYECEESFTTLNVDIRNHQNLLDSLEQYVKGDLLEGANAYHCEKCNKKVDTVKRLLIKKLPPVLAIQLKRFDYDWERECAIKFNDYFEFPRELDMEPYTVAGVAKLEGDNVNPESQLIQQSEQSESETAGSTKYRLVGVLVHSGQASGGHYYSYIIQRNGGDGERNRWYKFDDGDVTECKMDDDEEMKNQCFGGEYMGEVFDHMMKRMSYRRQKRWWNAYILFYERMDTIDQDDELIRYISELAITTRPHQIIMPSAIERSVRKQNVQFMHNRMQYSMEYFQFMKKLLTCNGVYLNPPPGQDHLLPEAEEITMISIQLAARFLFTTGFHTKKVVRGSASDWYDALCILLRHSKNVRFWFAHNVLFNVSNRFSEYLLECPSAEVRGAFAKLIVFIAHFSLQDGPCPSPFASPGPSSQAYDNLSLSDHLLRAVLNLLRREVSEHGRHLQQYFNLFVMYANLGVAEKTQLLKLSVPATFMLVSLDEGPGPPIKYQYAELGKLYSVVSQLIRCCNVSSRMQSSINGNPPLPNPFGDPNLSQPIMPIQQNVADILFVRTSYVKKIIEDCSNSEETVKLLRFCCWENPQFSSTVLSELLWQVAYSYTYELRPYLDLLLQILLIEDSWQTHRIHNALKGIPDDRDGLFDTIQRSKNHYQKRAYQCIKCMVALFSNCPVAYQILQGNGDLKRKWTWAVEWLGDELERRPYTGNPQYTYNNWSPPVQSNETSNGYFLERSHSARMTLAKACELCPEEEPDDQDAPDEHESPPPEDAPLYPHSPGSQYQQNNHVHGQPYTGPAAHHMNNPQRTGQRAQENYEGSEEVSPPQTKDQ
Experimental: For each purification, fifty 25-cm dishes of confluent HEK-293 cell lines stably expressing wild-type USP-9X (provided by Dr. Dario Alessi, University of Dundee, Scotland) were employed. Cells were washed twice with ice-cold PBS and lysed in 1 ml of ice-cold lysis buffer. The combined lysates were centrifuged at 26000 g for 30 min at 4° C. and the supernatant incubated with 0.2 ml of rabbit IgG-agarose beads (Sigma) for 1 h at 4° C. The IgG-agarose was washed extensively with lysis buffer containing 0.15 M NaCl, then with several washes in buffer B prior to incubation with 0.250 ml of buffer B containing 0.1 mg of TEV protease (Invitrogen). After 3 h at 4° C.˜70-90% of the TAP-tagged protein had been cleaved from the IgG-agarose and the eluted protein was incubated with 0.1 ml of rabbit calmodulin-Sepharose (Roche) equilibrated in buffer C. After 1 h at 4° C., the calmodulin-Sepharose was washed with buffer C. To elute the protein, the calmodulin-Sepharose was then incubated with 0.1 ml of buffer D for 10 min at 4° C. The eluate was removed from the beads and the elution repeated two or three times. To remove the NaCl present in the buffer containing the eluate protein, the eluates were centrifuged at 1500 g for 1 min at 4° C. in protein desalting spin columns. […]

Usp9x [2] = experiment: Low-throughput compound pull-down and Western blot; format: binding; conditions: FIG. 13, Western blot
STAT1 [3] = experiment: STAT1 phosphorylation; format: cell-based; conditions: FIG. 8
Experimental: siRNAs (100 nM) were transfected into INS-1E cells (5,000 cells/well in a 384-well plate) using DharmaFECT reagent. Transfected cells were cultured for 72 hr, then collected for Western blot analysis and cell-based assays. For Western blotting, cells were lysed in RIPA buffer. Total protein was separated by 4-12% SDS-PAGE and transferred to a PVDF membrane. Blots were developed using the chemiluminescence detection system SuperSignal (Thermo Fisher Scientific) and light emission was captured using an Imaging Station 4000MM (Carestream).

STAT1 [4] = experiment: Nuclear STAT1 translocation; format: cell-based; conditions: FIG. 9

cytokine-induced caspase-3/7 activity (induced by approximately 60%) (dissociated human islets): abolished
EC50 (INS-1E cells; Rattus norvegicus, 48 h, Caspase-Glo 3/7): > 10 µM
Usp9x thermal shift (Usp9x [1]): suggests binding
Structure (SMILES): C[C@@H]1CN([C@@H](C)CO)C(=O)c2cccc(NC(=O)Nc3cccc4ccccc34)c2O[C@H]1CN(C)S(=O)(=O)c1ccc2c(c1)OCCO2 [Compound 21A, N-(((2R,3R)-5-((S)-1-Hydroxypropan-2-yl)-3-methyl-10-(3-(naphthalen-1-yl)ureido)-6-oxo-3,4,5,6-tetrahydro-2H-benzo[b][1,5]oxazocin-2-yl)methyl)-N-methyl-2,3-dihydrobenzo-[b][1,4]dioxine-6-sulfonamide]
caspase-3/7 activity in INS-1E cells (INS-1E cells): decreased caspase-3/7 activity
protein isolated by compound pull-down (Usp9x [2]): Usp9x isolated
STAT1 phosphorylation (STAT1 [3]): Suppression of STAT1 phosphorylation
nuclear STAT1 translocation (STAT1 [4]): Inhibition of nuclear STAT1 translocation
